# Legend:
# [1] = test system: 639-V (Bladder Carcinoma); assay: Bliss excess, mean over the matrix (fraction); higher = more synergy
# How it was run: (§1)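 Cell lines in DMEM/F12 or RPMI with 10% FBS were plated in 1536-well plates, held 24 hours at 37°C, 5% CO2, then given two-drug dose matrices for 72 hours (DMSO typically 0.2%). Viability was read by CellTiter-Glo 2.0 luminescence and scaled as inhibition from 0 (vehicle wells) to 1 (blank wells). Combination Emax is the second-highest inhibition in the matrix; Bliss excess is observed combination effect minus expected EA + EB − EA·EB, EA and EB being single-agent effects.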
# [2] = test system: CAL-51 (Breast Carcinoma); assay: as above
# How it was run: as §1
# COLO-829 (Melanoma) [3] = assay: as above
# How it was run: as §1
# [4] = test system: HCC-15 (Squamous Cell Lung Carcinoma); assay: as above
# How it was run: as §1
# [5] = test system: KARPAS-231 (B-Cell Non-Hodgkin's Lymphoma); assay: as above
# How it was run: as §1
# [6] = test system: KYSE-410 (Esophageal Squamous Cell Carcinoma); assay: as above
# How it was run: as §1
# [7] = test system: LB771-HNC (Head and Neck Carcinoma); assay: as above
# How it was run: as §1
# [8] = test system: MHH-PREB-1 (B-Cell Non-Hodgkin's Lymphoma); assay: as above
# How it was run: as §1
# [9] = test system: NCI-H747 (Colorectal Carcinoma); assay: as above
# How it was run: as §1
# [10] = test system: OVCAR-8 (Ovarian Carcinoma); assay: as above
# How it was run: as §1
# [11] = test system: SW626 (Colorectal Carcinoma); assay: as above
# How it was run: as §1
# [12] = test system: TE-4 (Esophageal Squamous Cell Carcinoma); assay: as above
# How it was run: as §1
# [13] = test system: UMC-11 (Other Solid Carcinomas); assay: as above
# How it was run: as §1
# [14] = test system: 639-V (Bladder Carcinoma); assay: combination Emax (second highest fraction inhibited in the dose matrix, 72 h); higher = more inhibition; extreme values may be limits of the assay
# How it was run: as §1
# [15] = test system: CAL-51 (Breast Carcinoma); assay: as above
# How it was run: as §1
# COLO-829 (Melanoma) [16] = assay: as above
# How it was run: as §1
# [17] = test system: HCC-15 (Squamous Cell Lung Carcinoma); assay: as above
# How it was run: as §1
# [18] = test system: KARPAS-231 (B-Cell Non-Hodgkin's Lymphoma); assay: as above
# How it was run: as §1
# [19] = test system: KYSE-410 (Esophageal Squamous Cell Carcinoma); assay: as above
# How it was run: as §1
# [20] = test system: LB771-HNC (Head and Neck Carcinoma); assay: as above
# How it was run: as §1
# [21] = test system: MHH-PREB-1 (B-Cell Non-Hodgkin's Lymphoma); assay: as above
# How it was run: as §1
# [22] = test system: NCI-H747 (Colorectal Carcinoma); assay: as above
# How it was run: as §1
# [23] = test system: OVCAR-8 (Ovarian Carcinoma); assay: as above
# How it was run: as §1
# [24] = test system: SW626 (Colorectal Carcinoma); assay: as above
# How it was run: as §1
# [25] = test system: TE-4 (Esophageal Squamous Cell Carcinoma); assay: as above
# How it was run: as §1
# [26] = test system: UMC-11 (Other Solid Carcinomas); assay: as above
# How it was run: as §1
# 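For Bliss excess, mean over the matrix in this document: after 72 h of two-drug dosing.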
structure (smiles),measurement,setting,value
"CC(=O)c1c(C)c2cnc(Nc3ccc(N4CCNCC4)cn3)nc2n(C2CCCC2)c1=O [Palbociclib] + CN(CC[C@H](CSC1=CC=CC=C1)NC2=C(C=C(C=C2)S(=O)(=O)NC(=O)C3=CC=C(C=C3)N4CCC(CC4)[C@H](C5=CC=CC=C5C6=CC=C(C=C6)Cl)O)S(=O)(=O)C(F)(F)F)CCO [AZD4320] (first compound max 10 µM, 7x7, partner max 1 µM)",Bliss excess,[1],-0.124
same,Bliss excess,[2],-0.123
same,Bliss excess,COLO-829 (Melanoma) [3],-0.117
same,Bliss excess,[4],-0.0553
same,Bliss excess,[5],-0.0645
same,Bliss excess,[6],-0.0667
same,Bliss excess,[7],-0.0584
same,Bliss excess,[8],-0.041
same,Bliss excess,[9],-0.0425
same,Bliss excess,[10],-0.0261
same,Bliss excess,[11],-0.0921
same,Bliss excess,[12],0.001
same,Bliss excess,[13],0.0057
same,combination Emax,[14],0.198
same,combination Emax,[15],0.479
same,combination Emax,COLO-829 (Melanoma) [16],0.33
same,combination Emax,[17],0.982
same,combination Emax,[18],0.98
same,combination Emax,[19],0.41
same,combination Emax,[20],0.206
same,combination Emax,[21],0.492
same,combination Emax,[22],0.555
same,combination Emax,[23],0.173
same,combination Emax,[24],0.662
same,combination Emax,[25],0.341
same,combination Emax,[26],0.631
"COc1nnc2ccc(N3CCC(c4ccc(OCCN5CCN(C)C(=O)[C@H]5C)cc4)CC3)nn12 [AZD5153] + CN(CC[C@H](CSC1=CC=CC=C1)NC2=C(C=C(C=C2)S(=O)(=O)NC(=O)C3=CC=C(C=C3)N4CCC(CC4)[C@H](C5=CC=CC=C5C6=CC=C(C=C6)Cl)O)S(=O)(=O)C(F)(F)F)CCO [AZD4320] (first compound max 1 µM, 7x7, partner max 1 µM)",Bliss excess,[1],0.034
same,Bliss excess,[2],0.0267
same,Bliss excess,COLO-829 (Melanoma) [3],-0.0466
same,Bliss excess,[4],-0.0023
same,Bliss excess,[5],-0.159
same,Bliss excess,[6],0.0046
same,Bliss excess,[7],0.0273
same,Bliss excess,[8],0.0343
same,Bliss excess,[9],-0.0055
same,Bliss excess,[10],0.0081
same,Bliss excess,[11],0.0477
same,Bliss excess,[12],0.0449
same,Bliss excess,[13],0.0086
same,combination Emax,[14],0.606
same,combination Emax,[15],0.843
same,combination Emax,COLO-829 (Melanoma) [16],0.143
same,combination Emax,[17],0.994
same,combination Emax,[18],1
same,combination Emax,[19],0.259
same,combination Emax,[20],0.524
same,combination Emax,[21],0.47
same,combination Emax,[22],0.728
same,combination Emax,[23],0.733
same,combination Emax,[24],0.777
same,combination Emax,[25],0.336
same,combination Emax,[26],0.848
"C[C@@H](c1ccc2nccn2c1)n1nnc2ncc(-c3cnn(C)c3)nc21 [Savolitinib] + CN(CC[C@H](CSC1=CC=CC=C1)NC2=C(C=C(C=C2)S(=O)(=O)NC(=O)C3=CC=C(C=C3)N4CCC(CC4)[C@H](C5=CC=CC=C5C6=CC=C(C=C6)Cl)O)S(=O)(=O)C(F)(F)F)CCO [AZD4320] (first compound max 1 µM, 7x7, partner max 1 µM)",Bliss excess,[1],-0.0957
same,Bliss excess,[2],-0.0375
same,Bliss excess,COLO-829 (Melanoma) [3],-0.0397
same,Bliss excess,[4],-0.0203
same,Bliss excess,[5],-0.0299
same,Bliss excess,[6],-0.0588
same,Bliss excess,[7],-0.042
same,Bliss excess,[8],-0.0481
same,Bliss excess,[9],-0.0808
same,Bliss excess,[10],-0.0373
same,Bliss excess,[11],-0.108
same,Bliss excess,[12],-0.0244
same,Bliss excess,[13],0.0211
same,combination Emax,[14],0.172
same,combination Emax,[15],0.207
same,combination Emax,COLO-829 (Melanoma) [16],0.278
same,combination Emax,[17],0.916
same,combination Emax,[18],0.907
same,combination Emax,[19],0.174
same,combination Emax,[20],0.154
same,combination Emax,[21],0.139
same,combination Emax,[22],0.208
same,combination Emax,[23],0.0738
same,combination Emax,[24],0.582
same,combination Emax,[25],0.145
same,combination Emax,[26],0.401

# — the supplement of paper PMC11061612
